“And” between values parts separate entries of the source, which are not always exact repeats. Identical values can stand only once.
Test system: 422866-222-R5-J1-PDC complex spheroids viability
Experiment: Anticancer human tumor 422866-222-R5-J1-PDC patient-derived pancreatic adenocarcinoma cell line growth inhibition [RAS]
Conditions: for viability, T/C: stronger effect = lower value
Outline: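 Multi-cell-type spheroids: tumor cells plus HUVEC endothelial cells and mesenchymal stem cells. RAS-pathway inhibitors were combined with targeted agents, each dosed in half-log steps down from clinical Cmax, or from 10 microM when Cmax was unknown.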

[1] = curve of first compound, second compound 0.0316 µM
[2] = curve of first compound, second compound 0.1 µM
[3] = curve of first compound, second compound 0.316 µM
[4] = curve of first compound, second compound 1 µM
[5] = second compound 0.0316 µM, first compound 0.0316 µM
[6] = second compound 0.0316 µM, first compound 0.1 µM
[7] = second compound 0.0316 µM, first compound 0.316 µM
[8] = second compound 0.0316 µM, first compound 1 µM
[9] = second compound 0.1 µM, first compound 0.0316 µM
[10] = second compound 0.1 µM, first compound 0.1 µM
[11] = second compound 0.1 µM, first compound 0.316 µM
[12] = second compound 0.1 µM, first compound 1 µM
[13] = second compound 0.316 µM, first compound 0.0316 µM
[14] = second compound 0.316 µM, first compound 0.1 µM
[15] = second compound 0.316 µM, first compound 0.316 µM
[16] = second compound 0.316 µM, first compound 1 µM
[17] = second compound 1 µM, first compound 0.0316 µM
[18] = second compound 1 µM, first compound 0.1 µM
[19] = second compound 1 µM, first compound 0.316 µM
[20] = second compound 1 µM, first compound 1 µM
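Note: spheroids exposed to compounds for 7 days.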
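Throughout, for viability, T/C: 100% = DMSO vehicle control viability.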

In the case of `NC1c2ccccc2OC12CCN(c1cnc3c(N4CCCc5ncccc54)n[nH]c3n1)CC2` (stereo unspecified), the viability, T/C (compound 0.0316 µM) is reported as 51.6% [middle of 4 runs], the viability, T/C (compound 0.1 µM) is reported as 45.3% [middle of 4 runs] and the viability, T/C (compound 0.316 µM) is reported as 40.2% [middle of 4 runs]. For the same compound, the viability, T/C (compound 1 µM) was 40% [middle of 4 runs], the viability, T/C (compound 3.16 µM) was 36.7% [middle of 4 runs] and the viability, T/C (compound 10 µM) was 33.8% [middle of 4 runs]. For the same compound, the IC50 (curve of compound) was 0.29 µM and < 0.0316 µM.
`Nc1ccn(C2OC(CO)C(O)C2(F)F)c(=O)n1` (stereo unspecified) + C=CC(=O)N1CCN(c2nc(OCC3CCCN3C)nc3c(F)c(-c4nc(N)cc(C)c4C(F)(F)F)c(Cl)cc23)C(C)C1 gave an IC50 (curve of first compound, second compound 0.00316 µM) of less than 0.00316 µM, an IC50 (curve of first compound, second compound 0.01 µM) of less than 0.00316 µM and an IC50 [1] of less than 0.00316 µM. For the same compound, the IC50 [2] was less than 0.00316 µM, the IC50 [3] was less than 0.00316 µM and the IC50 [4] was less than 0.00316 µM. The viability, T/C (second compound 0.00316 µM, first compound 0.00316 µM) was 25.5%, the viability, T/C (second compound 0.00316 µM, first compound 0.01 µM) was 26.6% and the viability, T/C (second compound 0.00316 µM, first compound 0.0316 µM) was 21.8%. For the same compound, the viability, T/C (second compound 0.00316 µM, first compound 0.1 µM) was 18.7%, the viability, T/C (second compound 0.00316 µM, first compound 0.316 µM) was 14.8% and the viability, T/C (second compound 0.00316 µM, first compound 1 µM) was 14.9%. For the same compound, the viability, T/C (second compound 0.01 µM, first compound 0.00316 µM) was 26.6%, the viability, T/C (second compound 0.01 µM, first compound 0.01 µM) was 22.7% and the viability, T/C (second compound 0.01 µM, first compound 0.0316 µM) was 21.7%. The viability, T/C (second compound 0.01 µM, first compound 0.1 µM) was 15.7%, the viability, T/C (second compound 0.01 µM, first compound 0.316 µM) was 15.3% and the viability, T/C (second compound 0.01 µM, first compound 1 µM) was 17%. For the same compound, the viability, T/C (second compound 0.0316 µM, first compound 0.00316 µM) was 27.5%, the viability, T/C (second compound 0.0316 µM, first compound 0.01 µM) was 19.9% and the viability, T/C [5] was 19.3%. For the same compound, the viability, T/C [6] was 16.9%, the viability, T/C [7] was 15.9% and the viability, T/C [8] was 14.1%. For the same compound, the viability, T/C (second compound 0.1 µM, first compound 0.00316 µM) was 21.9%, the viability, T/C (second compound 0.1 µM, first compound 0.01 µM) was 21.6% and the viability, T/C [9] was 18.6%. The viability, T/C [10] was 16.4%, the viability, T/C [11] was 14.8% and the viability, T/C [12] was 14.6%. For the same compound, the viability, T/C (second compound 0.316 µM, first compound 0.00316 µM) was 24.8%, the viability, T/C (second compound 0.316 µM, first compound 0.01 µM) was 20.4% and the viability, T/C [13] was 20%. It also gave a viability, T/C [14] of 18.1%, a viability, T/C [15] of 16.7% and a viability, T/C [16] of 17.4%. For the same compound, the viability, T/C (second compound 1 µM, first compound 0.00316 µM) was 22.9%, the viability, T/C (second compound 1 µM, first compound 0.01 µM) was 19.7% and the viability, T/C [17] was 19%. It also gave a viability, T/C [18] of 14.2%, a viability, T/C [19] of 18% and a viability, T/C [20] of 17.4%.
`Cc1nc(N2CCC3(CC2)COC(C)C3N)c(CO)nc1Sc1ccnc(N)c1Cl` (stereo unspecified) + C#Cc1c(F)ccc2cc(O)cc(-c3ncc4c(N5CC6CCC(C5)N6)nc(OCC56CCCN5CC(F)C6)nc4c3F)c12 was tested, and the IC50 [1] was 0.328 µM, the IC50 [2] was 0.126 µM and the IC50 [3] was 0.0616 µM. It also gave an IC50 [4] of less than 0.0316 µM, an IC50 (curve of first compound, second compound 3.16 µM) of less than 0.0316 µM and an IC50 (curve of first compound, second compound 10 µM) of less than 0.0316 µM. For the same compound, the viability, T/C [5] was 74.7%, the viability, T/C [6] was 65.3% and the viability, T/C [7] was 49.2%. The viability, T/C [8] was 42.2%, the viability, T/C (second compound 0.0316 µM, first compound 3.16 µM) was 39.6% and the viability, T/C (second compound 0.0316 µM, first compound 10 µM) was 35.9%. It also gave a viability, T/C [9] of 80.5%, a viability, T/C [10] of 52.5% and a viability, T/C [11] of 38.9%. The viability, T/C [12] was 36.8%, the viability, T/C (second compound 0.1 µM, first compound 3.16 µM) was 34.8% and the viability, T/C (second compound 0.1 µM, first compound 10 µM) was 30.5%. For the same compound, the viability, T/C [13] was 62.4%, the viability, T/C [14] was 40.5% and the viability, T/C [15] was 33.2%. It also gave a viability, T/C [16] of 30.3%, a viability, T/C (second compound 0.316 µM, first compound 3.16 µM) of 29.9% and a viability, T/C (second compound 0.316 µM, first compound 10 µM) of 26.7%. It also gave a viability, T/C [17] of 37.6%, a viability, T/C [18] of 46.7% and a viability, T/C [19] of 24.3%. It also gave a viability, T/C [20] of 22%, a viability, T/C (second compound 1 µM, first compound 3.16 µM) of 24.5% and a viability, T/C (second compound 1 µM, first compound 10 µM) of 20.9%. The viability, T/C (second compound 3.16 µM, first compound 0.0316 µM) was 24.5%, the viability, T/C (second compound 3.16 µM, first compound 0.1 µM) was 23.1% and the viability, T/C (second compound 3.16 µM, first compound 0.316 µM) was 20.3%. The viability, T/C (second compound 3.16 µM, first compound 1 µM) was 16.5%, the viability, T/C (second compound 3.16 µM, first compound 3.16 µM) was 18% and the viability, T/C (second compound 3.16 µM, first compound 10 µM) was 18.3%. It also gave a viability, T/C (second compound 10 µM, first compound 0.0316 µM) of 16.5%, a viability, T/C (second compound 10 µM, first compound 0.1 µM) of 19.6% and a viability, T/C (second compound 10 µM, first compound 0.316 µM) of 18%. It also gave a viability, T/C (second compound 10 µM, first compound 1 µM) of 14.8%, a viability, T/C (second compound 10 µM, first compound 3.16 µM) of 15% and a viability, T/C (second compound 10 µM, first compound 10 µM) of 16.3%.

Source: PubChem BioAssay AID2060901 (Molecular Pharmacology Branch, DTP, NCI, 2025)
